{"source": "patent US20080119505A1", "about": "“Novel 6-Pyridylphenanthridines” (ALTANA Pharma AG, priority 2005, published 2008)", "biological_target": "T1, PDE4B2 (Homo sapiens, UniProt Q07343)", "T1 construct": "made in house; host or cells: SF21 insect cells (baculovirus; virus made in SF9 cells)", "T1 sequence (Q07343 1-564 isoform Q07343-2)": "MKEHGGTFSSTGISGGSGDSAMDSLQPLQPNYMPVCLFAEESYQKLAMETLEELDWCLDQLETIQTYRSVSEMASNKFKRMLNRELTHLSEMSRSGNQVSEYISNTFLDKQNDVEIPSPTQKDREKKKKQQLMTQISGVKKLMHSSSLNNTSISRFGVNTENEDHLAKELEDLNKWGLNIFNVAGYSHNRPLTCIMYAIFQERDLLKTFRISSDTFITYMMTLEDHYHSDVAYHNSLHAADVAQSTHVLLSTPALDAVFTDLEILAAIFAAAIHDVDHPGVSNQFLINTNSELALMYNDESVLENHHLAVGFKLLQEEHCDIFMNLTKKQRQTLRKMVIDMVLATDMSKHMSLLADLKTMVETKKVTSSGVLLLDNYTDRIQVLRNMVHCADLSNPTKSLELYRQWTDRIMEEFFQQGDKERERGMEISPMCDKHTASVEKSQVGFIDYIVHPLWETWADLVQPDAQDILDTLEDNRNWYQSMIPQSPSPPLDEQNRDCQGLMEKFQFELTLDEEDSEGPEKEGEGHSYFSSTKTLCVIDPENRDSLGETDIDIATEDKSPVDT", "assay": "Inhibition of PDE4 activity (PDE4B2 [3H]cAMP SPA enzyme assay)", "format": "biochemical", "details": "recombinant PDE4B2 expressed in SF21 insect cells, 0.5 μM cAMP, read-out: −log IC50 (mol/l), Inhibition of the PDE4 activity (converted)", "protocol": "The PDE4B2 (GB no. M97515) was a gift of Prof. M. Conti (Stanford University, USA). It was amplified from the original plasmid (pCMV5) via PCR with primers Rb9 (5′-[…]-3′) and Rb10 (5′-[…]-3′) and cloned into the pCR-Bac vector (Invitrogen, Groningen, NL).\nThe recombinant baculovirus was prepared by means of homologous recombination in SF9 insect cells. The expression plasmid was cotransfected with Bac-N-Blue (Invitrogen, Groningen, NL) or Baculo-Gold DNA (Pharmingen, Hamburg) using a standard protocol (Pharmingen, Hamburg). Wt virus-free recombinant virus supernatant was selected using plaque assay methods. After that, high-titre virus supernatant was prepared by amplifying 3 times. PDE was expressed in SF21 cells by infecting 2×10^6 cells/ml with an MOI (multiplicity of infection) between 1 and 10 in serum-free SF900 medium (Life Technologies, Paisley, UK). […]\nThe SF21 insect cells were resuspended, at a concentration of approx. 10^7 cells/ml, in ice-cold (4° C.) homogenization buffer (20 mM Tris, pH 8.2, containing the following additions: 140 mM NaCl, 3.8 mM KCl, 1 mM EGTA, 1 mM MgCl2, 10 mM β-mercaptoethanol, 2 mM benzamidine, 0.4 mM Pefablock, 10 μM leupeptin, 10 μM pepstatin A, 5 μM trypsin inhibitor) and disrupted by ultrasonication. […] The protein content was determined by the Bradford method (BioRad, Munich) using BSA as the standard. […]", "data": [{"smiles": "CCOc1cc2c(cc1OC)C(c1ccc(OC)nc1OC)=N[C@@H]1CCCC[C@H]21", "note": "[Example 2, (4aR,10bR)-6-(2,6-Dimethoxy-pyridin-3-yl)-9-ethoxy-8-methoxy-1,2,3,4,4a,10b-hexahydro-phenanthridine]", "values": [{"measurement": "IC50", "value": 3.24, "unit": "nM"}]}]}
